Assay results: EP1161524B1, “CELLS COEXPRESSING AN AMYLOID PRECURSOR PROTEIN AND AN $g(a)-SECRETASE AND THEIR USES IN TEST METHODS AND DIAGNOSTICS” (Fahrenholz, Falk, priority 1999, dated 2000)

Columns and labels:
[1] = tested on: HEK-Zellen; experiment: Immunoblot analysis of APPsα secretion into the medium (antibody 6E10), untransfected HEK cells; assay type: cell-based; settings: Homo sapiens, HEK293, 1 µm PMA, 4 h, Fig. 5 lanes 1 and 2, read-out: Erhöhung der APPsα-Freisetzung
Description: (§1) Fig. 5 zeigt die Sekretion von APPsα von HEK- und HEK-ADAM-10-Zellen. • (A) Die Zellen wurden in Gegenwart der bezeichneten Verbindung inkubiert. Nach 4 Stunden wurde das Medium gesammelt, die Proteine präzipitiert und einer Immunoblotanalyse mit dem monoklonalen Antikörper 6E10, gefolgt von einem sekundären [^35S]-markierten Anti-Maus-IgG-Antikörper, unterzogen. • (B) Quantitative Analyse des sekretierten APPsα. Die APPsα entsprechenden radioaktiven Banden wurden mit Hilfe eines Bio-Imaging Analyzer BAS-1800 quantifiziert. Die Meßwerte wurden wie in dem Beispiel beschrieben, auf verschiedene Proteinmengen normiert. […]
(§2) 8.10^5 HEK und HEK-ADAM10-Zellen (HEK-Zellen, die ADAM 10 stabil exprimieren, Verfahren wie oben) wurden auf 5 cm Zellkulturschalen, die mit Poly-L-Lysin behandelt worden waren, ausgesät und fast bis zu Konfluenz hochgezogen. […] Die radioaktiven Banden, die APPsα entsprachen, wurden mit Hilfe des Bio-Imaging-Analysers-BAS-1800 (Fuji) quantifiziert. […]
(§3) Die α-Sekretaseaktivität in HEK-ADAM 10 Zellen wurde mit der Aktivität, die in untransfizierten HEK-Zellen gefunden wurde, verglichen. […] Immunoblotexperimente und Immunopräzipitation nach metabolischer [^35S]-Markierung wurden durchgeführt, um die α-Sekretaseaktivität zu quantifizieren (Fig. 5 und Fig. 6). […]

[2] = tested on: HEK-ADAM 10-Zellen; experiment: Immunoblot analysis of APPsα secretion into the medium (antibody 6E10), HEK cells stably expressing ADAM 10; assay type: cell-based; settings: Homo sapiens, HEK293; HEK-ADAM 10 cells, 1 µm PMA, 4 h, Fig. 5 lanes 4 and 5; read-out: Vergrößerung der α-Sekretaseaktivität (APPsα-Freisetzung)
Description: as §1, §2, §3

[3] = molecular target: T1, gereinigtes ADAM 10 (Bos taurus, UniProt Q10741); experiment: Inhibition of the proteolytic cleavage of Aβ(11-28) by purified ADAM 10 (metalloproteinase inhibitors); assay type: biochemical, Rind (Bos taurus); settings: inhibitor concentration 1 mM
T1 construct: daß die proteolytisch aktivierte Form der Disintegrin-Metalloprotease ADAM 10 im wesentlichen in der Plasmamembranen lokalisiert ist; from tissue; host or cells: bovine kidney plasma membranes
T1 sequence (Q10741 214-748): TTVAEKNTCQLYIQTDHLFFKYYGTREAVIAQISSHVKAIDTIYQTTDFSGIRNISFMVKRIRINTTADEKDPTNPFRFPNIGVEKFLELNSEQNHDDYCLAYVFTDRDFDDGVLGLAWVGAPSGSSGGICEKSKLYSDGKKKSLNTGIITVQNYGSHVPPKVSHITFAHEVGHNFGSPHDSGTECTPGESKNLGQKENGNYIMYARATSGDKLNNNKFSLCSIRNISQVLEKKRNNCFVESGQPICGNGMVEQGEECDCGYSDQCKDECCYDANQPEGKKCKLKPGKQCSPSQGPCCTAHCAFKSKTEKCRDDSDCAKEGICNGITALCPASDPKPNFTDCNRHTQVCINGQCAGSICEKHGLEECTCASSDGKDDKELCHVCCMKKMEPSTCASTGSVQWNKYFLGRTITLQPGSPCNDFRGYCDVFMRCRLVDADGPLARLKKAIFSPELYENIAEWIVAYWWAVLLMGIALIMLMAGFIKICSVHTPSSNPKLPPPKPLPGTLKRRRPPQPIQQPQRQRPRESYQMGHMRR
Description: Peptide einer Endkonzentration von 0,3 mM wurden mit 2 µg gereinigten Enzym in 50 µl 50 mM EPPS pH 8,3, 250 mM NaCl bei 37°C 30 Minuten oder 6 Stunden inkubiert. Die Reaktionen wurden mit 2 µl TFA gestoppt. Meßproben wurden mit Hilfe von HPLC auf einer Vydac (The Separation Group, Hesperia, Calif. USA) RP 18 Säule (5 µm, 250 x 4,6 mm) analysiert. Die Peptide wurden mit einem Puffersystem von 0,1 % TFA in Wasser (Puffer A) und 0,1 % TFA, 9,9 % Wasser, 90 % Acetonitril (Puffer B) aufgetrennt, wobei der folgende Gradient angelegt wurde: 0 % B, 5 Min.; 0 bis 70 % B innerhalb 45 Min. Das Molekulargewicht der Proteolyseprodukte wurde mit ESI-Massenspektrometrie bestimmt. Für die Berechnung der prozentualen Spaltung wurde die Peakfläche, die ein Peptid ergab, das ohne Enzym inkubiert und ansonsten identisch behandelt wurde, als Referenz für 100 % herangezogen.
Einige Metalloproteinase-Inhibitoren wurden auf ihre Fähigkeit, die proteolytische Spaltung von Aβ(11-28) durch gereinigtes ADAM 10 zu inhibieren, getestet.

Inhibierung der proteolytischen Spaltung von Aβ(11-28) durch gereinigtes ADAM 10 [3] | Compound | fold induction at 1 µM [1] | fold induction at 1 µM [2]
 | CCCCCCCCCCCCCC(=O)O[C@@H]1[C@@H](C)[C@@]2(O)[C@@H](C=C(CO)C[C@]3(O)C(=O)C(C)=C[C@@H]23)[C@@H]2C(C)(C)[C@]12OC(C)=O [PMA, Phorbol-12-myristat-13-acetat] | ~6 | 2.5
vollständig inhibiert | OC(CS)C(O)CS (stereo not shown) [DTT] |  | 
inhibierte | c1cnc2c(c1)ccc1cccnc12 [1,10-Phenanthrolin] |  | 
